According to patent US10179777B2, “3-(1H-benzimidazol-2-yl)-1H-pyridin-2-one derivatives” (MERCK PATENT GMBH, priority 2015, dated 2019):
Where a name gives a salt, the structure may show the parent alone.

Key:
[1] = system: ALK1-mediated SMAD1/5 phosphorylation in HUVEC cells; experiment: Cell-based immunofluorescence assay for ALK1-mediated SMAD1/5 phosphorylation in HUVEC cells; details: Homo sapiens, 1.5 ng/ml BMP-9 with compound for 2 h, % nuclei with pSMAD1/5 signal, read-out: Smad 1/5 IC50
Source text: In vitro cell-based Immunofluorescence-Assay for identification of inhibitors of ALK1-mediated SMAD1/5 phosphorylation in HUVEC cells:
ALK1 is a type I cell-surface receptor for the TGF-β superfamily of ligands. In adults ALK1 is mainly expressed on activated endothelial cells, e.g. during wound healing or in tumor angiogenesis. BMP9 and BMP10 are high affinity ligands for ALK1.
BMP9 and BMP10 binding leads to the phosphorylation of so-called Smad1 at Ser463 and Ser465 in the carboxy-terminal motif SSXS, as well as Smad5 and Smad8 at their corresponding sites. These phosphorylated Smads dimerize with the coactivating Smad4 and translocate to the nucleus, where they stimulate transcription of target genes.
Primary endothelial cells (HUVEC: Human Umbilical Vein Endothelial Cells; supplier Promocell) are cultivated in the culture medium obtained from Promocell (with supplements corresponding to 5% FCS) for maximum 5 passages, seeded into black 384-well culture plates with clear bottom (3000 cells/well/30 μl), and incubated for 16-24 hours at 37° C., 5% CO2 and 90% rH.
The following day cells were serum-starved for 2-3 h in order to stop TGF-ß-mediated signalling derived from ligands present in FBS. 1.5 ng/ml BMP-9 was than added in parallel with test compounds for 2 h at 37° C., 5% CO2 in order to identify compounds which block functional activity of ALK1 leading to phosphorylation and nuclear translocation of SMAD1/5/8.
After fixation (15 min 4% Formaldehyd in PBS) and permeabilization (10 min 0.2% Triton X-100 in PBS) an indirect immunocytochemical staining is performed with a specific Phospho-Smad1/5 (Ser463/465) antibody (Cell Signaling #9516) and Alexa488-labelled secondary anti-rabbit-IgG-antibody. DNA staining with Propidium Iodide allowed parallel cell counting. Image acquisition and analysis was performed on an MDS ImageXpress Ultra confocal High Content Reader using the image analysis software MetaXpress. Final read-out were % nuclei with a pSMAD1/5 signal above a defined background.
The final DMSO concentration in the assay was 0.5%. DMSO-treated HUVEC cells served as neutral control (=0%) and cells treated with 10 μM of a reference inhibitor described in a patent served as inhibitor control (=−100%). Raw data were normalised to the neutral and inhibitory references. The assay was performed as dose response (10 compound dilutions, 1 nM-30 μM).

[2] = target: T1, ALK1 (GST-modified kinase domain ACVRL1 (139-503)) (Homo sapiens, UniProt P37023); experiment: ALK1 kinase inhibition assay (33P-ATP filter binding, Reaction Biology); assay type: biochemical; details: casein substrate, 100 μM ATP (Km ATP), 120 min ambient temperature
T1 construct: N-terminally GST-modified kinase domain ACVRL1 (139-503); GST (N)
T1 sequence (P37023 139-503): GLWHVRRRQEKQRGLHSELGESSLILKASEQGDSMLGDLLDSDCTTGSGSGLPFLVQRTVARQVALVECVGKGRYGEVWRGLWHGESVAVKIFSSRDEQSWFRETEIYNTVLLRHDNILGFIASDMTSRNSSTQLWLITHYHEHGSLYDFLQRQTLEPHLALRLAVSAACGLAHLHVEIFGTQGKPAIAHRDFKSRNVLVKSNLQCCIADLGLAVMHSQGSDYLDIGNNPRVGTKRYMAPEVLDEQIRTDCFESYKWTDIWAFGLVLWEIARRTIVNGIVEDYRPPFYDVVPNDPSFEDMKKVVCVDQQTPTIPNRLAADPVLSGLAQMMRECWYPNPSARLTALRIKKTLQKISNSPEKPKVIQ
Description: (§1) The protein sequences of the kinases targeted and accompanying information are described in publically available data base http://www.uniprot.org/uniprot/for ALK1 www.uniprot.org/uniprot/P37023, for ALK2 www.uniprot.org/uniprot/Q04771 and for ALK5 www.uniprot.org/uniprot/P36897. IC50 determination of the novel inhibitors described was performed at Reaction Biology Corp., Malvern, Pa., USA, with assay conditions open to public at www.reactionbiology.com/webapps/site/KinaseDetail.aspx?page=Kinases&id=1, and www.reactionbiology.com/webapps/site/Kinase Assay Protocol.aspx. In addition, they were specified previously in Anastassiadis et al. Nat. Biotechnol. 29(11): 1039-1045. doi:10.1038/nbt.2017.
A1) ALK1 Kinase Inhibition Assay
(§2) was performed with N-terminally GST-modified kinase domain ACVRL1 (139-503) and 20 mg/ml Casein as substrate in reaction buffer of 20 mM HEPES pH 7.5, 10 mM MgCl2, 1 mM EGTA, 0.02% Brij, 0.02 mg/ml BSA, 0.1 mM Na3VO4, 2 mM DTT, 1% DMSO. […] Reactions were carried out at ambient temperature for 120 min, followed by spotting of the reactions onto P81 ion exchange filter paper (Whatman Inc., Picataway, N.J., USA). Unbound phosphate was removed by extensive washing of filters in 0.75% phosphoric acid. After subtraction of background derived from control reactions without enzyme activity, kinase activity data was expressed as the percent remaining kinase activity in test samples compared to vehicle (DMSO) reactions. IC50 values and curve fits were obtained using Prism (GraphPad Software).

[3] = target: T2, ALK5 (TGFβR1; GST-modified TGFBR1 (200-503)) (Homo sapiens, UniProt P36897); experiment: ALK5 kinase inhibition assay (33P-ATP filter binding, Reaction Biology); assay type: biochemical; details: casein substrate, 200 μM ATP
T2 construct: Using GST-Modified TGFBR1 (200-503); GST
T2 sequence (P36897 200-503): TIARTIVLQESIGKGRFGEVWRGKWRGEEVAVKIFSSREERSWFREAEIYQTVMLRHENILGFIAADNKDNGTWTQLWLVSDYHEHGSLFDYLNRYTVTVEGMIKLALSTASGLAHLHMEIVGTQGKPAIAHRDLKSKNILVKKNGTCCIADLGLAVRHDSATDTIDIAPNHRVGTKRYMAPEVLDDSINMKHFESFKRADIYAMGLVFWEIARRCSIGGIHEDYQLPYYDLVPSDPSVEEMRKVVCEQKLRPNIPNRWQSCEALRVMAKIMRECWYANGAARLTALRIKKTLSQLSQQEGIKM
Description: as §1
A3) ALK5 Kinase Inhibition Assay Was Performed Similar to Procedures A1 and A2 Using GST-Modified TGFBR1 (200-503) and 1 mg/ml Casein as Substrate at 200 μM ATP.

[4] = target: T3, ALK2 (GST-modified kinase domain ACVR1(145-509)) (Homo sapiens, UniProt Q04771); experiment: ALK2 kinase inhibition assay (33P-ATP filter binding, Reaction Biology); assay type: biochemical; details: casein substrate, 20 μM ATP (Km ATP), 120 min ambient temperature
T3 construct: N-terminally GST-modified kinase domain ACVR1(145-509); GST (N)
T3 sequence (Q04771 145-509): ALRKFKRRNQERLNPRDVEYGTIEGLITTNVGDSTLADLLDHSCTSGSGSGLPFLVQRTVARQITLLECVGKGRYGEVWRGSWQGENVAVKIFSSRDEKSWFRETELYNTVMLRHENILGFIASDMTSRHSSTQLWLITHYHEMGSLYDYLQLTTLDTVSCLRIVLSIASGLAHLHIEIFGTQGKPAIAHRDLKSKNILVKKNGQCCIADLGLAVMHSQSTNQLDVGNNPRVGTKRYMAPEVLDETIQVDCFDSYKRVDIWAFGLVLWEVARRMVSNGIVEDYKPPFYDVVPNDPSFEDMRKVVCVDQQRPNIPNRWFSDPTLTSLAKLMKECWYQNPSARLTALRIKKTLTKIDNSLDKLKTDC
Description: as §1
A2) ALK2 Kinase Inhibition Assay
as §2, with “performed similar to procedure A1” for “performed”, “domain ACVR1(145-509)” for “domain ACVRL1 (139-503)”, “and 1” for “and 20”

SMILES	IC50 [1]	IC50 [2]	IC50 [3]	IC50 [4]
O=c1[nH]cc(-c2cccc(CO)c2)cc1-c1nc2cc(N3CCOCC3)ccc2[nH]1 [Compound A1, 5-(3-Hydroxymethyl-phenyl)-3-(5-morpholin-4-yl-1H-benzimidazol-2-yl)-1H-pyridin-2-one]	1300 nM	39 nM	3600 nM	94 nM
O=c1[nH]cc(-c2cccc(CO)c2)cc1-c1nc2cc(N3CCC(O)CC3)ccc2[nH]1 [Compound A12, 5-(3-Hydroxymethyl-phenyl)-3-[5-(4-hydroxy-piperidin-1-yl)-1H-benzimidazol-2-yl]-1H-pyridin-2-one]	7200 nM	28 nM	4100 nM	57 nM
O=c1[nH]cc(-c2cccc(CO)c2)cc1-c1nc2cc(N3CCNCC3)ccc2[nH]1 [Compound A13, 5-(3-Hydroxymethyl-phenyl)-3-(5-piperazin-1-yl-1H-benzimidazol-2-yl)-1H-pyridin-2-one dihydrochloride]	400 nM	1 nM	970 nM	1 nM
O=c1[nH]cc(-c2ccc(CO)cc2)cc1-c1nc2cc(N3CCNCC3)ccc2[nH]1 [Compound A16, 5-(4-Hydroxymethyl-phenyl)-3-(5-piperazin-1-yl-1H-benzimidazol-2-yl)-1H-pyridin-2-one]	590 nM	6 nM	2400 nM	8 nM
O=c1[nH]cc(-c2cccc(CO)c2)cc1-c1nc2cc(N3CCCNCC3)ccc2[nH]1 [Compound A17, 3-(5-[1,4]Diazepan-1-yl-1H-benzimidazol-2-yl)-5-(3-hydroxymethyl-phenyl)-1H-pyridin-2-one]	2500 nM	27 nM	3300 nM	25 nM
O=c1[nH]cc(-c2ccc(F)c(CO)c2)cc1-c1nc2cc(N3CCNCC3)ccc2[nH]1 [Compound A20, 5-(4-Fluoro-3-hydroxymethyl-phenyl)-3-(5-piperazin-1-yl-1H-benzimidazol-2-yl)-1H-pyridin-2-one]	7800 nM	24 nM	4400 nM	19 nM
O=c1[nH]cc(-c2cc(F)c(CO)c(F)c2)cc1-c1nc2cc(N3CCNCC3)ccc2[nH]1 [Compound A21, 5-(3,5-Difluoro-4-hydroxymethyl-phenyl)-3-(5-piperazin-1-yl-1H-benzimidazol-2-yl)-1H-pyridin-2-one dihydrochloride]	6100 nM	8.6 nM	5100 nM	23 nM
O=c1[nH]cc(-c2ccc(F)c(CO)c2)cc1-c1nc2cc(N3CCCNCC3)ccc2[nH]1 [Compound A24, 3-(5-[1,4]Diazepan-1-yl-1H-benzimidazol-2-yl)-5-(4-fluoro-3-hydroxymethyl-phenyl)-1H-pyridin-2-one]		33 nM	6500 nM	41 nM
CN1CCN(c2ccc3[nH]c(-c4cc(-c5cccc(CO)c5F)c[nH]c4=O)nc3c2)CC1 [Compound A37, 5-(2-Fluoro-3-hydroxymethyl-phenyl)-3-[5-(4-methyl-piperazin-1-yl)-1H-benzimidazol-2-yl]-1H-pyridin-2-one trifluoroacetate]		4 nM	2500 nM	30 nM
O=c1[nH]cc(-c2ccnc3[nH]ccc23)cc1-c1nc2cc(N3CCC(O)CC3)ccc2[nH]1 [Compound A38, 3-[5-(4-Hydroxy-piperidin-1-yl)-1H-benzimidazol-2-yl]-5-(1H-pyrrolo[2,3-b]-pyridin-4-yl)-1H-pyridin-2-one]		3.7 nM	320 nM	19 nM
O=c1[nH]cc(-c2ccnc3[nH]ccc23)cc1-c1nc2cc(N3CCCNCC3)ccc2[nH]1 [Compound A47, 3-(5-[1,4]Diazepan-1-yl-1H-benzimidazol-2-yl)-5-(1H-pyrrolo[2,3-b]pyridin-4-yl)-1H-pyridin-2-one]		1 nM	200 nM	38 nM
